Reference: patent US20240294478A1, “ANTI-CANCER COMPOUNDS AND METHODS OF USE” (YALE UNIVERSITY, priority 2021, published 2024)
Where two headings read alike, the source gives them in different places.

Columns and labels:
LN229 MGMT+/MMR+ cells = experiment: Short-term cell viability assay, LN229 MGMT+/MMR+; format: cell-based; settings: Homo sapiens, read-out: IC50 against LN229 cell lines, MGMT+ MMR+
Description: (§1) LN229 MGMT- and MGMT+ cell lines were a gift from B. Kaina (Johannes Gutenberg University Mainz, Mainz, Germany) and grown in Gibco® Duilbecco's Modified Eagle Medium with 10% fetal bovine serum (DMEM). For each compound tested, the relationship between MGMT status and MMR status and compound activity, in terms of IC50 values ([…]), was determined by the following method. On day 1, LN229 isogenic cells of varying MGMT and MMR status were seeded in 96 well format at a density of 2000 cells/well in 100 μL of DMEM media and allowed to adhere overnight. On day 2, a drug master plate was made with 100×the desired maximal concentration of test compound and serially diluted by 2 until 100×the minimal desired concentration, with one DMSO control. Then daughter plates were created with varied concentrations from 3-times the minimal concentration to 3-times the maximal desired concentration. Afterwards, 50 μL of daughter drug plate was added to 100 μL of the seeded cells for a final concentration of 1×in triplicate. Cells were allowed to grow for 6 days. On day 7, the cells were fixed, and stained with Hoechst nuclear dye and imaged to determine growth inhibition.
(§2) For each compound tested, the relationship between MGMT status and MMR status and compound activity, in terms of IC50 values (in μM), was determined. In addition, for each compound, the therapeutic index (TI) was calculated, according to the equation MGMT TI=IC50 (MGMT+/MMR+) divided by IC50 (MGMT−/MMR+). The T1 indicates the efficacy of a compound in treating the targeted MGMT-cancer cells as compared to potential for the same compound to damage, or have adverse effects against, normal cells which are MGMT+cells, The higher the value of the TI, the safer the compound is. […] MMR RI (resistance index)=IC50 (MGMT−/MMR−) divided by IC50 (MGMT−/MMR+). The higher the value of the RI, the less likely that resistance to the compound will develop.
(§3) Short-term Cell Viability Assay. Cells were seeded in 96-well plates at 1000 or 2000 cells/well and allowed to adhere at 23° C. for 60 min and then incubated overnight at 37° C. Cells were treated with indicated concentrations of compounds in triplicate for 4-6 days prior to fixation with 3.7% paraformaldehyde and nuclear staining with 1 μg/mL Hoechst 33342 dye. Cells were imaged on a Cytation 3 imaging reader (BioTek) and quantified using CellProfiler software. For in vitro short-term growth delay experiments, IC50 values were determined from the nonlinear regression equation, [inhibitor] vs normalized response with variable slope.

LN229 MGMT+/MMR− cells = experiment: Short-term cell viability assay, LN229 MGMT+/MMR- (shRNA targeting MSH2); format: cell-based; settings: Homo sapiens
Description: as §1, §2, §3

LN229 MGMT−/MMR− cells = experiment: Short-term cell viability assay, LN229 MGMT-/MMR- (shRNA targeting MSH2); format: cell-based, human; settings: for IC50: Homo sapiens, read-out: IC50 against LN229 cell lines, MGMT− MMR−
Description: as §1
For each compound tested, the relationship between MGMT status and MMR status and compound activity, in terms of IC50 values (in μM), was determined. In addition, for each compound, the therapeutic index (TI) was calculated, according to the equation MGMT TI=IC50 (MGMT+/MMR+) divided by IC50 (MGMT−/MMR+). […] MMR RI (resistance index)=IC50 (MGMT−/MMR−) divided by IC50 (MGMT−/MMR+).
as §3, with “Cells were treated with indicated concentrations of compounds in triplicate for 4-6 days prior to fixation with 3.7% paraformaldehyde and nuclear staining with 1 μg/mL Hoechst 33342 dye.” left out

LN229 MGMT−/MMR+ cells = experiment: Short-term cell viability assay, LN229 MGMT-/MMR+; format: cell-based, human; settings: for IC50: Homo sapiens, read-out: IC50 against LN229 cell lines, MGMT− MMR+
Description: as §1, §2, §3

[1] = tested on: PD20 cells, deficient in FANCD2 (FANCD2−/−) or complemented with FANCD2; experiment: Short-term viability assay, PD20 cells; format: cell-based, human; settings: PD20 FANCD2−/− vs +FANCD2
Description: FIGS. 8A-8K. (FIG. 8A) Change in percent cells with 1 micronuclei from baseline (DMSO control) after treatment as in FIGS. 5A and 5C. […] (FIG. 8B) Short-term viability assay curves for KL-50 in PD20 cells, deficient in FANCD2 (FANCD2−/−) or complemented with FANCD2 (+FANCD2). (FIG. 8C) Short-term viability assay curves for KL-50 in PEO4 (BRCA2+) and PEO1 (BRCA2−/−) cells pre-treated with 0.01% DMSO control or 10 μM O^6BG (+O^6BG) for 1 h prior to KL-50 addition. (FIG. 8D) Short-term viability assay curves for KL-50 in DLD1 BRCA2+/− and BRCA2−/−cells pre-treated with 0.01% DMSO control or 10 μM O^6BG (+O^6BG) for 1 h prior to KL-50 addition. For FIGS. 8B-8D, points, mean; error bars, SD; n=3 technical replicates. […] Change in percent cells with 1 micronuclei from baseline (DMSO control) after treatment with olaparib (10 μM) for 48 h in LN229 MGMT+/−, MMR+/−cells. […] Western blot analysis of FANCD2 ubiquitination in LN229 MGMT+/−, MMR+/−cells and PD20 FANCD2-deficient cells, complemented with empty vector (FANCD2+EV), wildtype FANCD2 (PD20+FD2) or ubiquitination-mutant FANCD2 (PD20+KR). The % FANCD2 ubiquitination (% FANCD2 Ub) is quantified as the background-corrected integrated band intensity of the upper band divided by the sum of the background-corrected integrated band intensities of the upper and lower bands. The fold change in % FANCD2 ubiquitination is presented for each cell line relative to DMSO-treated cells. Vinculin serves as loading control. For 8J-8K, points, mean; error bars, SD; n=3 technical replicates.
as §3, with “Cells were treated with indicated concentrations of compounds in triplicate for 4-6 days prior to fixation with 3.7% paraformaldehyde and nuclear staining with 1 μg/mL Hoechst 33342 dye.” left out

MGMT−/MMR− cells = experiment: IR alkaline comet assay, LN229 MGMT-/MMR-, time course; format: cell-based, human; settings: time points 2-24 h
Description: The IR alkaline comet assay, adapted for ICL detection was performed to determine if ICLs were formed in MGMT-cells treated with KL-50. In this assay, cells were sequentially exposed to genotoxins and ionizing radiation, and then analyzed by single cell alkaline gel electrophoresis. Attenuation of the IR-induced comet tail is indicative of ICL formation.
IR Alkaline Comet Assay. This assay was performed utilizing the CometAssay™ Kit (Trevigen) according to the alkaline assay protocol, with the addition of slide irradiation post-lysis. Cells were trypsinized, washed with 1×PBS, added to melted Comet LMAgarose (Trevigen), and spread on Trevigen CometSlides at a density of 1000 cells per sample in 50 μL. Lysis solution (Trevigen) with 10% DMSO was added overnight at 4° C. Slides were removed from lysis buffer and irradiated to 0 or 10 Gy using an XRAD 320 X-Ray System (Precision X-Ray) at 320 kV, 12.5 mA, and 50.0 cm SSD, with a 2 mm Al filter and 20 cm×20 cm collimator. Slides were then placed in alkaline buffer (200 mM NaOH, 1 mM EDTA) for 45 min, followed by electrophoresis in 850 mL alkaline buffer for 45 min at 4° C. Slides were washed and stained with SYBR gold (Invitrogen) per Trevigen assay protocol. Slides were imaged on a Cytation 3 imaging reader (BioTek), and comets were analyzed using CometScore 2.0 software (TriTek).

[2] = LN-229, 144 h, Table 1, 6 days growth

SMILES: NC(=O)c1nc[nH]c1/N=N/N(CCF)C(=O)OCc1ccccc1 [Compound E4]
- IC50 (LN229 MGMT+/MMR+ cells; LN-229, 144 h, Table 1, 6 days growth, Hoechst nuclear count): 14 ± 1 µM
- IC50 (LN229 MGMT+/MMR− cells; LN-229, 144 h, Table 1, 6 days growth, read-out: IC50 against LN229 cell lines, MGMT+ MMR−): 11 ± 1 µM
- IC50 (LN229 MGMT−/MMR− cells; [2]): 17 ± 1 µM
- IC50 (LN229 MGMT−/MMR+ cells; [2]): 8 ± 1 µM

SMILES: CN(CCF)/N=N/c1nc[nH]c1C(N)=O [Compound E5, 4-[(1E)-3-(2-fluoroethyl)-3-methyltriaz-1-en-1-yl]-1H-imidazole-5-carboxamide]
- IC50 (LN229 MGMT+/MMR+ cells; LN-229, 144 h): > 199 µM
- IC50 (LN229 MGMT+/MMR− cells; LN-229, 144 h, read-out: IC50 against LN229 cell lines, MGMT+ MMR−): > 100 µM
- IC50 (LN229 MGMT−/MMR− cells; LN-229, 144 h): > 100 µM
- IC50 (LN229 MGMT−/MMR+ cells; LN-229, 144 h): 14.2 ± 1 µM

SMILES: CO[C@@]12[C@H](COC(N)=O)C3=C(C(=O)C(C)=C(N)C3=O)N1C[C@@H]1N[C@@H]12 [MMC, Mitomycin C]
- sensitivity of FANCD2-deficient cells [1]: hypersensitivity to crosslinking agents in FANCD2−/−cells

SMILES: NC(=O)c1ncn2c(=O)n(CCCl)nnc12 [MTZ, 3-(2-chloroethyl)-4-oxoimidazo[5,1-d][1,2,3,5]tetrazine-8-carboxamide, reference compound]
- IC50 (LN229 MGMT+/MMR+ cells; LN-229, Table II): 61.9 ± 4.7 µM
- DNA damage in unirradiated samples (MGMT−/MMR− cells): maximal damage at 2 h
- DNA mobility after IR, rate of ICL formation (MGMT−/MMR− cells): reduced DNA mobility within 2 h
- IC50 (LN229 MGMT+/MMR− cells; LN-229, Table II, read-out: IC50 against LN229 cell lines, MGMT MMR−): 50.8 ± 4.2 µM
- IC50 (LN229 MGMT−/MMR− cells; LN-229, Table II): 6.9 ± 0.7 µM
- activity in MGMT−/MMR− cells, in words (LN229 MGMT−/MMR− cells; LN229 MGMT−/MMR−): effective against MGMT−/MMR− cells
- MGMT− RI (resistance index) (LN229 MGMT−/MMR− cells; Table II, IC50 (MGMT−/MMR−) divided by IC50 (MGMT−/MMR+)): 0.8
- IC50 (LN229 MGMT−/MMR+ cells; LN-229, Table II): 9 ± 0.4 µM
- TI / RI, in words (LN229 MGMT−/MMR+ cells; LN229 isogenic lines): poor TI
- MGMT− TI (therapeutic index) (LN229 MGMT−/MMR+ cells; Table II, IC50 (MGMT+/MMR+) divided by IC50 (MGMT−/MMR+)): 6.9
